From patent publication US10682319B2, “Necrosis inhibitors” (National Institute of Biological Sciences, Beijing, priority 2014, dated 2020)

test system: HT-29 cells; assay: Necrosis assay (TNF-α/Smac mimetic/z-VAD induced necrosis, cell viability by ATP level); assay type: cell-based; details: HT-29, TNF-α + Smac mimetic + z-VAD, 24 hrs, ATP level; values given as ranges in nM; read-out: EC50 (inhibition of necrosis in HT-29 cells)
Description: HT-29 cells were cultured in McCoy's 5 A culture medium (Invitrogen). On day one, HT-29 cells were plated in 96-well assay plates at density of 2,500-3,500 cells per well. On day two, necrosis were induced by adding 20 ng/ml TNF-α (T), 100 nM Smac mimetic (S), and […] z-VAD (Z). At the same time, […] compound from a chemical library of ˜200,000 compounds was delivered into each well. After 24 hrs treatment, cell viability was determined by measuring ATP level using the CellTiter-Glo Luminescent Cell Viability Assay kit. A CellTiter-Glo Assay (Promega) was performed according to the manufacturer's instructions Luminescence was recorded with a PerkinElmer EnSpire Multimode Plate Reader. Survived cells were normalized to those cells treated with DMSO. Nec-1 was used as a positive control for screening necrosis inhibitors. Data are represented as mean±standard deviation of duplicates
Dose-dependent inhibition of necrosis by the compounds in HT-29 cells were determined by measuring ATP levels as described above.

Structure (SMILES)	EC50
CCC(C)(C)C(=O)N(C)Cc1ccc(Cl)cc1F [Compound 27, N-(4-chloro-2-fluorobenzyl)-N,2,2-trimethylbutanamide]	1 to 1000 nM
CCC(C)(C)C(=O)N(Cc1ccccc1)OC [Compound S4, N-benzyl-N-methoxy-2,2-dimethylbutanamide]	1 to 1000 nM
CCC(C)(C)C(=O)N(O)Cc1cc(F)cc(F)c1F [Compound 93, N-hydroxy-2,2-dimethyl-N-(2,3,5-trifluorobenzyl)butanamide]	1 to 1000 nM
CCC(C)(C)C(=O)N(C)Cc1ccccc1F [Compound 13, N-(2-fluorobenzyl)-N,2,2-trimethylbutanamide]	1 to 1000 nM
CCC(C)(C)C(=O)N(O)Cc1ccc(F)cc1F [Compound 96, N-(2,4-difluorobenzyl)-N-hydroxy-2,2-dimethylbutanamide]	1 to 1000 nM
CCC(C)(C)C(=O)N(O)Cc1ccc(F)cc1 [Compound 94, N-(4-fluorobenzyl)-N-hydroxy-2,2-dimethylbutanamide]	1 to 1000 nM
CCC(C)(C)C(=O)N(C)Cc1cccc(C#N)c1 [Compound 17, N-(3-cyanobenzyl)-N,2,2-trimethylbutanamide]	1 to 1000 nM
CCC(C)(C)C(=O)N(O)Cc1ccc(F)c(F)c1F [Compound 97, N-hydroxy-2,2-dimethyl-N-(2,3,4-trifluorobenzyl)butanamide]	1 to 1000 nM
CCC(C)(C)C(=O)N(C)Cc1ccccc1 [Compound 90, N-benzyl-N,2,2-trimethylbutanamide]	1 to 1000 nM
CCC(C)(C)C(=O)N(CCO)Cc1cc(F)cc(F)c1F [Compound 77, N-(2-hydroxyethyl)-2,2-dimethyl-N-(2,3,5-trifluorobenzyl)butanamide]	1 to 1000 nM
CCC(C)(C)C(=O)N(C)CC1CCCCC1 [Compound 39, N-(cyclohexylmethyl)-N,2,2-trimethylbutanamide]	1 to 1000 nM
CN(Cc1cc(F)cc(F)c1F)C(=O)C(C)(C)C [Compound S2, N-methyl-N-(2,3,5-trifluorobenzyl)pivalamide]	1 to 1000 nM

same assay, conditions: Homo sapiens, HT-29, 24 h, HT-29, TNF-α + Smac mimetic + z-VAD, 24 hrs, ATP level; values given as ranges in uM; read-out: EC50 (inhibition of necrosis in HT-29 cells)

Structure (SMILES)	EC50
CCC1CCCCN1C(=O)N(C)Cc1cc(F)cc(F)c1F (centres unmarked) [Compound 116, 2-ethyl-N-methyl-N-(2,3,5-trifluorobenzyl)piperidine-1-carboxamide]	1000 to 100000 nM
CCC(C)(C)C(=O)N(C)Cc1cc(F)ccc1Br [Compound 56, N-(2-bromo-5-fluorobenzyl)-N,2,2-trimethylbutanamide]	1000 to 10000 nM
CCC(C)(C)C(=O)N(C)[C@@H](CO)c1ccccc1F [Compound 148]	1000 to 100000 nM
CCC(C)(C)C(=O)N(C)Cc1ccc(F)cc1 [Compound S7, N-(4-fluorobenzyl)-N,2,2-trimethylbutanamide]	1000 to 10000 nM
CCC(C)(C)C(=O)NCc1ccc(F)c(F)c1 [Compound 8, N-(3,4-difluorobenzyl)-2,2-dimethylbutanamide]	1000 to 10000 nM
CCC(C)(C)C(=O)NCc1cccc(Br)c1 [Compound 6, N-(3-bromobenzyl)-2,2-dimethylbutanamide]	1000 to 10000 nM
CCC(C)(C)C(=O)N(C)Cc1sccc1C [Compound 41, N,2,2-trimethyl-N-((3-methylthiophen-2-yl)methyl)butanamide]	1000 to 10000 nM
CCC(C)(C)C(=O)N(O)CC1CCCO1 (centres unmarked) [Compound 142]	1000 to 100000 nM
CN(Cc1cc(F)c(F)c(F)c1)C(=O)C(C)(C)CO [Compound 66, 3-hydroxy-N,2,2-trimethyl-N-(3,4,5-trifluorobenzyl)propanamide]	1000 to 100000 nM
CCC(C)(C)C(=O)N[C@@H](CC(=O)NCCc1ccccc1)c1ccccc1 [Compound 108, (S)-2,2-dimethyl-N-(3-oxo-3-(phenethylamino)-1-phenylpropyl)butanamide]	1000 to 100000 nM
CN(Cc1ccccc1F)C(=O)NC1CCCCC1 [Compound 113, 3-cyclohexyl-1-(2-fluorobenzyl)-1-methylurea]	1000 to 100000 nM
CN(Cc1cc(F)c(F)c(F)c1)C(=O)c1c(Cl)cccc1Cl [Compound 129, 2,6-dichloro-N-methyl-N-(3,4,5-trifluorobenzyl)benzamide]	1000 to 100000 nM
CCC(C)(C)C(=O)N(C)Cc1ccc(OC)nc1 [Compound 38, N-((6-methoxypyridin-3-yl)methyl)-N,2,2-trimethylbutanamide]	1000 to 100000 nM
CCC(C)(C)C(=O)N(C)Cc1c(F)ccc(C)c1F [Compound 50, N-(2,6-difluoro-3-methylbenzyl)-N,2,2-trimethylbutanamide]	1000 to 10000 nM
CN(Cc1ccccc1F)C(=O)c1ccccc1 [Compound 61, N-(2-fluorobenzyl)-N-methylbenzamide]	1000 to 100000 nM
CN(Cc1cc(F)cc(F)c1F)C(=O)C12CC3CC(CC(C3)C1)C2 [Compound 76, N-methyl-N-(2,3,5-trifluorobenzyl)adamantane-1-carboxamide]	1000 to 100000 nM
CCC(C)(C)C(=O)N(Cc1cc(F)c(F)cc1F)OC [Compound 133]	1000 to 100000 nM
CCC(C)(C)C(=O)N[C@@H](CO)c1ccccc1 [Compound 109, (R)—N-(2-hydroxy-1-phenylethyl)-2,2-dimethylbutanamide]	1000 to 100000 nM
CCC(C)(C)C(=O)N(C)Cc1cccc(OC)c1 [Compound 20, N-(3-methoxybenzyl)-N,2,2-trimethylbutanamide]	1000 to 100000 nM
CCC(C)(C)C(=O)N[C@@H](C(=O)NCCOc1ccccc1)c1ccccc1 [Compound 127, (R)-2,2-dimethyl-N-(2-oxo-2-((2-phenoxyethyl)amino)-1-phenylethyl)butanamide]	1000 to 100000 nM
CCC(C)(C)C(=O)N[C@@H](CC(=O)NCCOCCOC)c1ccccc1 [Compound 102, (S)—N-(3-((2-(2-methoxyethoxy)ethyl)amino)-3-oxo-1-phenylpropyl)-2,2-dimethylbutanamide]	1000 to 100000 nM
CCC(C)(C)C(=O)N(C)Cc1ccncc1 [Compound 34, N,2,2-trimethyl-N-(pyridin-4-ylmethyl)butanamide]	1000 to 100000 nM

Structure (SMILES)	EC50
CCN(Cc1ccccc1F)C(=O)C(C)(C)CC [Compound 10, N-ethyl-N-(2-fluorobenzyl)-2,2-dimethylbutanamide]	1000 to 10000 nM
CNCC(C)(C)C(=O)N(C)Cc1cc(F)c(F)c(F)c1 [Compound 68, N,2,2-trimethyl-3-(methylamino)-N-(3,4,5-trifluorobenzyl) propanamide]	1000 to 100000 nM
CCC(C)(C)C(=O)NC(C)c1ccccc1 (centres unmarked) [Compound 52, 2,2-dimethyl-N-(1-phenylethyl)butanamide]	1000 to 100000 nM
CCC(C)(C)C(=O)N(C)Cc1cccc(C)c1C [Compound 31, N-(2,3-dimethylbenzyl)-N,2,2-trimethylbutanamide]	1000 to 100000 nM
CON(Cc1cc(F)cc(F)c1F)C(=O)C(C)(C)C(C)(F)F [Compound S20]	1000 to 100000 nM
CCC(C)(C)C(=O)N(C)C1(c2ccccc2)CC1 [Compound 55, N,2,2-trimethyl-N-(1-phenylcyclopropyl)butanamide]	1000 to 100000 nM
C=CC(C)(C)C(=O)N(C)Cc1ccccc1F [Compound 147]	1000 to 100000 nM
CCC(C)(C)C(=O)N(O)Cc1cn(C)cc1C [Compound 144]	1000 to 100000 nM
CN(Cc1cc(F)cc(F)c1F)C(=O)C1(C(F)(F)F)CCCC1 [Compound 86, N-methyl-N-(2,3,5-trifluorobenzyl)-1-(trifluoromethyl)cyclopentanecarboxamide]	1000 to 100000 nM
CCC(C)(C)C(=O)N(C)Cc1cccc(Br)c1 [Compound 19, N-(3-bromobenzyl)-N,2,2-trimethylbutanamide]	1000 to 10000 nM
CCC(C)(C)C(=O)N(CCCOC)Cc1cccc(F)c1 [Compound 63, N-(3-fluorobenzyl)-N-(3-methoxypropyl)-2,2-dimethylbutanamide]	1000 to 100000 nM
CCC(C)(C)C(=O)N(C)C(C)c1ccccc1 (centres unmarked) [Compound 53, N,2,2-trimethyl-N-(1-phenylethyl)butanamide]	1000 to 100000 nM
CON(Cc1ccc(F)c(F)c1)C(=O)C(C)(C)C(C)(F)F [Compound S17]	1000 to 100000 nM
CCC(C)(C)C(=O)N[C@@H](CC(=O)NC1CCCCC1)c1ccccc1 [Compound 104, (S)—N-(3-(cyclohexylamino)-3-oxo-1-phenylpropyl)-2,2-dimethylbutanamide]	1000 to 100000 nM
CCC(C)(C)C(=O)N(C)C(CO)c1ccccc1 (centres unmarked) [Compound 111, N-(2-hydroxy-1-phenylethyl)-N,2,2-trimethylbutanamide]	1000 to 100000 nM
CCC(C)(C)C(=O)N[C@@H](CC(=O)OC)c1ccccc1 [Compound 100, (S)-methyl 3-(2,2-dimethylbutanamido)-3-phenylpropanoate]	1000 to 100000 nM
CCC(C)(C)C(=O)NCc1ccc(F)cc1F [Compound 7, N-(2,4-difluorobenzyl)-2,2-dimethylbutanamide]	1000 to 10000 nM
CCC(C)(C)C(=O)NCc1ccccc1F [Compound 1, N-(2-fluorobenzyl)-2,2-dimethylbutanamide]	1000 to 10000 nM
C=CC(C)(C)C(=O)N(O)Cc1sccc1C [Compound 145]	1000 to 100000 nM
CC1CCCCN1C(=O)N(C)Cc1cc(F)cc(F)c1F (centres unmarked) [Compound 117, N,2-dimethyl-N-(2,3,5-trifluorobenzyl)piperidine-1-carboxamide]	1000 to 10000 nM
CCC(C)(C)C(=O)N(C)Cc1ccccc1OC [Compound 15, N-(2-methoxybenzyl)-N,2,2-trimethylbutanamide]	1000 to 100000 nM
CN(Cc1ccccc1F)C(=O)CC(C)(C)C [Compound 59, N-(2-fluorobenzyl)-N,3,3-trimethylbutanamide]	1000 to 10000 nM
